According to patent US20250205268A1, “TREATMENT OF VIRUSES WITH ANTIVIRAL NUCLEOSIDES” (priority 2021, published 2025):
Several values for one entry are separate records, joined by “and”; a condition that tells them apart may be missing. Identical values can stand only once. Like-named read-outs stand apart in the source and are kept apart here.

Key:
[1] = format: in vivo; settings: nonclinical studies
SARS-CoV-2 RNA [2] = format: in vivo; settings: for SARS-CoV-2 RNA titer, mean / SARS-CoV-2 RNA titer, mean change from baseline: interim
[3] = format: in vivo, human; settings: adults; age, sex, body size, food, mild-to-moderate renal or mild hepatic impairment
Experimental: A population pharmacokinetic (popPK) analysis for Compound A exposure was conducted using 4202 NHC plasma concentrations collected in 1207 individuals from a phase 1 study in healthy participants, a phase 2a study in non-hospitalized participants with COVID-19, a Phase 2 study in hospitalized participants with COVID-19, and a Phase 2/3 study in non-hospitalized participants with COVID-19. All studies were randomized, double-blind, placebo-controlled studies of safety, tolerability, and PK of Compound A after oral administration.

SARS-CoV-2 RNA [4] = assay: Phase 2a trial: RT-PCR for SARS-CoV-2 RNA in nasopharyngeal swabs (Example 2); format: in vivo
[5] = baseline RNA titer >10^6 copies/ml, Day 3
[6] = baseline RNA titer >10^6 copies/ml, Day 10
[7] = baseline RNA titer >10^6 copies/ml, Day 15
[8] = baseline RNA titer >10^6 copies/ml, Day 29
[9] = baseline RNA titer >10^6 copies/ml, EOT (Day 5)
[10] = baseline RNA titer ≤10^6 copies/ml, Day 3
[11] = baseline RNA titer ≤10^6 copies/ml, Day 10
[12] = baseline RNA titer ≤10^6 copies/ml, Day 15
[13] = baseline RNA titer ≤10^6 copies/ml, Day 29
[14] = baseline RNA titer ≤10^6 copies/ml, EOT (Day 5)

Structure (SMILES): CC(C)C(=O)OC[C@H]1O[C@@H](n2ccc(NO)nc2=O)[C@H](O)[C@@H]1O [Compound A, {(2R,3S,4R,5R)-3,4-dihydroxy-5-[4-(hydroxyimino)-2-oxo-3,4-dihydropyrimidin-1 (2H)-yl]oxolan-2-yl}methyl 2-methylpropanoate]
- pancreatic toxicity (pathology changes in the pancreas) [1]: No test-article related pathology changes in the pancreas
- reductions in viral load from baseline versus placebo (SARS-CoV-2 RNA [2]; Part 2 interim analysis): significantly greater reductions in viral load from baseline at Days 3 and 5 than placebo
- reductions from baseline in mean viral load versus placebo (SARS-CoV-2 RNA [2]; final all-randomized analysis, days 3, 5 (end-of-treatment visit), and 10): greater reductions from baseline in mean viral load than placebo
- SARS-CoV-2 RNA titer, mean (SARS-CoV-2 RNA [2]; MITT, Baseline): 6.85 log^10 copies/ml
- SARS-CoV-2 RNA titer, mean (SARS-CoV-2 RNA [2]; MITT, Day 3): 5.82 log^10 copies/ml
- SARS-CoV-2 RNA titer, mean change from baseline (SARS-CoV-2 RNA [2]; MITT, Day 3): −1.04 log^10 copies/ml
- SARS-CoV-2 RNA titer, mean (SARS-CoV-2 RNA [2]; MITT, Day 10): 3.70 log^10 copies/ml
- SARS-CoV-2 RNA titer, mean change from baseline (SARS-CoV-2 RNA [2]; MITT, Day 10): −3.18 log^10 copies/ml
- SARS-CoV-2 RNA titer, mean (SARS-CoV-2 RNA [2]; MITT, Day 15): 3.20 log^10 copies/ml
- SARS-CoV-2 RNA titer, mean change from baseline (SARS-CoV-2 RNA [2]; MITT, Day 15): −3.69 log^10 copies/ml
- SARS-CoV-2 RNA titer, mean (SARS-CoV-2 RNA [2]; MITT, Day 29): 2.90 log^10 copies/ml
- SARS-CoV-2 RNA titer, mean change from baseline (SARS-CoV-2 RNA [2]; MITT, Day 29): −4.08 log^10 copies/ml
- SARS-CoV-2 RNA titer, mean (SARS-CoV-2 RNA [2]; MITT, EOT (Day 5)): 4.80 log^10 copies/ml
- SARS-CoV-2 RNA titer, mean change from baseline (SARS-CoV-2 RNA [2]; MITT, EOT (Day 5)): −2.09 log^10 copies/ml
- SARS-CoV-2 RNA titer, mean (SARS-CoV-2 RNA [2]; baseline RNA titer >10^6 copies/ml, Baseline): 7.71 log^10 copies/ml
- SARS-CoV-2 RNA titer, mean (SARS-CoV-2 RNA [2]; [5]): 6.56 log^10 copies/ml
- SARS-CoV-2 RNA titer, mean change from baseline (SARS-CoV-2 RNA [2]; [5]): −1.17 log^10 copies/ml
- SARS-CoV-2 RNA titer, mean (SARS-CoV-2 RNA [2]; [6]): 3.94 log^10 copies/ml
- SARS-CoV-2 RNA titer, mean change from baseline (SARS-CoV-2 RNA [2]; [6]): −3.79 log^10 copies/ml
- SARS-CoV-2 RNA titer, mean (SARS-CoV-2 RNA [2]; [7]): 3.26 log^10 copies/ml
- SARS-CoV-2 RNA titer, mean change from baseline (SARS-CoV-2 RNA [2]; [7]): −4.47 log^10 copies/ml
- SARS-CoV-2 RNA titer, mean (SARS-CoV-2 RNA [2]; [8]): 2.93 log^10 copies/ml
- SARS-CoV-2 RNA titer, mean change from baseline (SARS-CoV-2 RNA [2]; [8]): −4.87 log^10 copies/ml
- SARS-CoV-2 RNA titer, mean (SARS-CoV-2 RNA [2]; [9]): 5.25 log^10 copies/ml
- SARS-CoV-2 RNA titer, mean change from baseline (SARS-CoV-2 RNA [2]; [9]): −2.49 log^10 copies/ml
- SARS-CoV-2 RNA titer, mean (SARS-CoV-2 RNA [2]; baseline RNA titer ≤10^6 copies/ml, Baseline): 4.58 log^10 copies/ml
- SARS-CoV-2 RNA titer, mean (SARS-CoV-2 RNA [2]; [10]): 3.88 log^10 copies/ml
- SARS-CoV-2 RNA titer, mean change from baseline (SARS-CoV-2 RNA [2]; [10]): −0.67 log^10 copies/ml
- SARS-CoV-2 RNA titer, mean (SARS-CoV-2 RNA [2]; [11]): 3.05 log^10 copies/ml
- SARS-CoV-2 RNA titer, mean change from baseline (SARS-CoV-2 RNA [2]; [11]): −1.49 log^10 copies/ml
- SARS-CoV-2 RNA titer, mean (SARS-CoV-2 RNA [2]; [12]): 3.01 log^10 copies/ml
- SARS-CoV-2 RNA titer, mean change from baseline (SARS-CoV-2 RNA [2]; [12]): −1.51 log^10 copies/ml
- SARS-CoV-2 RNA titer, mean (SARS-CoV-2 RNA [2]; [13]): 2.81 log^10 copies/ml
- SARS-CoV-2 RNA titer, mean change from baseline (SARS-CoV-2 RNA [2]; [13]): −1.76 log^10 copies/ml
- SARS-CoV-2 RNA titer, mean (SARS-CoV-2 RNA [2]; [14]): 3.56 log^10 copies/ml
- SARS-CoV-2 RNA titer, mean change from baseline (SARS-CoV-2 RNA [2]; [14]): −1.00 log^10 copies/ml
- need for dose adjustment [3]: without dose adjustment
- Change from baseline in SARS-CoV-2 viral load, least squares mean (SARS-CoV-2 RNA [4]; 200 mg, Day 3): −0.783 log10 copies/ml
- Difference in least squares mean viral load change vs placebo (SARS-CoV-2 RNA [4]; 200 mg, Day 3): 0.064 log10 copies/ml
- Change from baseline in SARS-CoV-2 viral load, least squares mean (SARS-CoV-2 RNA [4]; 200 mg, Day 5): −1.471 log10 copies/ml
- Difference in least squares mean viral load change vs placebo (SARS-CoV-2 RNA [4]; 200 mg, Day 5): −0.150 log10 copies/ml
- Change from baseline in SARS-CoV-2 viral load, least squares mean (SARS-CoV-2 RNA [4]; 200 mg, Day 7): −2.028 log10 copies/ml
- Difference in least squares mean viral load change vs placebo (SARS-CoV-2 RNA [4]; 200 mg, Day 7): −0.076 log10 copies/ml
- Change from baseline in SARS-CoV-2 viral load, least squares mean (SARS-CoV-2 RNA [4]; 200 mg, Day 14): −2.884 log10 copies/ml
- Difference in least squares mean viral load change vs placebo (SARS-CoV-2 RNA [4]; 200 mg, Day 14): −0.019 log10 copies/ml
- Change from baseline in SARS-CoV-2 viral load, least squares mean (SARS-CoV-2 RNA [4]; 400 mg, Day 3): −0.941 log10 copies/ml
- Difference in least squares mean viral load change vs placebo (SARS-CoV-2 RNA [4]; 400 mg, Day 3): −0.094 log10 copies/ml
- Change from baseline in SARS-CoV-2 viral load, least squares mean (SARS-CoV-2 RNA [4]; 400 mg, Day 5): −1.754 log10 copies/ml
- Difference in least squares mean viral load change vs placebo (SARS-CoV-2 RNA [4]; 400 mg, Day 5): −0.434 log10 copies/ml
- Change from baseline in SARS-CoV-2 viral load, least squares mean (SARS-CoV-2 RNA [4]; 400 mg, Day 7): −2.263 log10 copies/ml
- Difference in least squares mean viral load change vs placebo (SARS-CoV-2 RNA [4]; 400 mg, Day 7): −0.311 log10 copies/ml
- Change from baseline in SARS-CoV-2 viral load, least squares mean (SARS-CoV-2 RNA [4]; 400 mg, Day 14): −2.840 log10 copies/ml
- Difference in least squares mean viral load change vs placebo (SARS-CoV-2 RNA [4]; 400 mg, Day 14): 0.026 log10 copies/ml
- Median time to response (SARS-CoV-2 viral RNA negativity) (SARS-CoV-2 RNA [4]; 800 mg twice daily 5 days): 14 days and 14.0 days
- Change from baseline in SARS-CoV-2 viral load, least squares mean (SARS-CoV-2 RNA [4]; 800 mg, Day 3): −1.050 log10 copies/ml
- Difference in least squares mean viral load change vs placebo (SARS-CoV-2 RNA [4]; 800 mg, Day 3): −0.203 log10 copies/ml
- Change from baseline in SARS-CoV-2 viral load, least squares mean (SARS-CoV-2 RNA [4]; 800 mg, Day 5): −1.867 log10 copies/ml
- Difference in least squares mean viral load change vs placebo (SARS-CoV-2 RNA [4]; 800 mg, Day 5): −0.547 log10 copies/ml
- Change from baseline in SARS-CoV-2 viral load, least squares mean (SARS-CoV-2 RNA [4]; 800 mg, Day 7): −2.485 log10 copies/ml
- Difference in least squares mean viral load change vs placebo (SARS-CoV-2 RNA [4]; 800 mg, Day 7): −0.534 log10 copies/ml
- Change from baseline in SARS-CoV-2 viral load, least squares mean (SARS-CoV-2 RNA [4]; 800 mg, Day 14): −3.040 log10 copies/ml
- Difference in least squares mean viral load change vs placebo (SARS-CoV-2 RNA [4]; 800 mg, Day 14): −0.175 log10 copies/ml
- Median time to clearance of viral RNA (SARS-CoV-2 RNA [4]; 800 mg, participants seronegative at baseline (sensitivity analysis)): 14 days
